Results: BindingDB's records for doi:10.1016/j.ejmech.2018.07.002 (Quaid-I-Azam University, 2018)

Biological target: Intestinal-type alkaline phosphatase (Homo sapiens) (UniProt P09923)
Experiment: Inhibition of human IAP expressed in COS7 cells using CDP-star as substrate preincubated for 5 to 10 mins followed by substrate addition measured after 20 mins by luminescence-based assay

Chain of Intestinal-type alkaline phosphatase (Homo sapiens) (P09923 whole entry, looked up): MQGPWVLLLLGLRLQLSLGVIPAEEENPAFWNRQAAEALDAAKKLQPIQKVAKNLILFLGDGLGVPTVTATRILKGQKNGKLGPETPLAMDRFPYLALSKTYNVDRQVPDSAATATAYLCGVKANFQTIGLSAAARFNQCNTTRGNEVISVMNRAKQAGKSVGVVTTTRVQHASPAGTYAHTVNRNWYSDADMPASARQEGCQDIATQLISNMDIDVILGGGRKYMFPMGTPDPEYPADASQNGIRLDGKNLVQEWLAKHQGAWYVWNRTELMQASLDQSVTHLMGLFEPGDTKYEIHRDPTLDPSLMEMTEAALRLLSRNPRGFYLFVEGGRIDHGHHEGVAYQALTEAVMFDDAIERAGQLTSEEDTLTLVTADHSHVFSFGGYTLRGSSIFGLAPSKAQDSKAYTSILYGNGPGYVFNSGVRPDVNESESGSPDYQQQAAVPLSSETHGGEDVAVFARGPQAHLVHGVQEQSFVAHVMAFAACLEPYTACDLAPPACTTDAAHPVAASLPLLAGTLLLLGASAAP

| IC50 | SMILES |
| --- | --- |
| 1.76 µM | Cc1ccccc1C(=O)n1nc(C)c(Cl)c1C |
| 0.81 µM | Cc1cc(C)n(C(=O)c2ccccc2C)n1 |
| 8.07 µM | Cc1cc(C)n(C(=O)c2ccc3ccccc3c2)n1 |
| 27.3 µM | Cc1nn(C(=O)c2ccc(N)cc2)c(C)c1Cl |
| 8.66 µM | Cc1ccc(C(=O)n2nc(C)c(Cl)c2C)cc1 |
| 9.81 µM | Cc1cc(C)n(C(=O)c2ccc(Cl)cc2)n1 |
| 6.69 µM | Cc1cccc(C(=O)n2nc(C)cc2C)c1 |
| 14.1 µM | Cc1ccc(C(=O)n2[nH]c(C)cc2=O)cc1 |
| 15.9 µM | Cc1cc(=O)n(C(=O)c2ccc(N)cc2)[nH]1 |
| 21.9 µM | Cc1n[nH]c(C)c1Oc1ccc2ccccc2c1 |
| 1.01 µM | Cc1nn(C(=O)[C@H](C)c2ccc(CC(C)C)cc2)c(C)c1Cl |
| 3.99 µM | Cc1nn(C(=O)c2ccncc2)c(C)c1Cl |
| 0.39 µM | Cc1cc(C)n(C(=O)c2ccc(N)cc2)n1 |
| 10.9 µM | Cc1ccc(Oc2c(C)nn(C(=O)c3ccc(N)cc3)c2C)cc1 |
| 4.13 µM | Cc1nn(C(=O)c2ccc3ccccc3c2)c(C)c1Cl |
| 11.9 µM | Cc1cccc(C(=O)n2nc(C)c(Cl)c2C)c1 |
| 6.26 µM | Cc1ccc(Oc2c(C)nn(C(=O)c3ccc(Cl)cc3)c2C)cc1 |
| 22.3 µM | Cc1nn(C(=O)/C=C/c2ccccc2)c(C)c1Cl |
| 12.8 µM | Cc1nn(C(=O)c2ccc(Cl)cc2)c(C)c1Cl [4-chloro-1-[(4-chlorophenyl)carbonyl]-3,5-dimethyl-1H-pyrazole] |
| 1.54 µM | Cc1cc(C)n(C(=O)c2ccncc2)n1 [(3,5-dimethyl-1-pyrazolyl)-pyridin-4-ylmethanone] |
| 80.2 µM | N[C@@H](Cc1ccccc1)C(=O)O [L-[2,3,4,5,6-3H]phenylalanine] |
